Here are results for two compounds from publication PMC5447756, “Identification of Epigallocatechin-3- Gallate as an Inhibitor of Phosphoglycerate Mutase 1” (Frontiers in Pharmacology, 2017).

The test system of data set [1] is T1, PGAM1 R10K mutant.
T1 construct: His; made in house; host or cells: E. coli BL21
In words: Inhibition of PGAM1 R10K mutant. The data set is classed as biochemical, human. The settings on record: compared to the wild-type PGAM1. As to the method: (§1) BL21 competent cells were transformed by His-tagged pETDuet-1-PGAM1 (wildtype or mutants) or His-tagged pETDuet-1-PHGDH constructs. Cells were collected, resuspended in buffer A (20 mM Tris, 200 mM NaCl, 20 mM imidazole, pH 8.0) and sonicated on ice until complete lysis. His-tagged PGAM1, PGAM1 mutants or PHGDH recombinant proteins in supernatant were purified using Ni-NTA beads (QIAGEN), washed with buffer A, and eluted with buffer B (20 mM Tris, 200 mM NaCl, 250 mM imidazole, pH 8.0). All obtained proteins were stored at -80°C.
(§2) Recombinant PGAM1 enzymatic activity was measured by a multiple enzymes coupled assay. In brief, assay was conducted in 10 μL buffer (50 mM HEPES, PH 7.5, 10 mM MgCl2) containing 5 μL 1 mg/ml recombinant PGAM1 enzyme, 2.5 μL test compound, 2.5 μL 1 mM ADP, 1 mM 3-PG, 0.5 units/ml enolase (Sigma–Aldrich) and 0.5 units/mL recombinant pyruvate kinase M1 (Sigma–Aldrich). The production of ATP was measured by Kinase-Glo® Max Luminescent Kinase Assay (Promega).
(§3) H186R was a well-validated catalytically dead mutant of PGAM1 ([Zhang et al., 2016]; [Qu et al., 2017]), which was used as a control (Figure 2B).

Data set [2] relates to T2, PGAM1 R116K mutant.
T2 construct: His; made in house; host or cells: E. coli BL21
In words: Inhibition of PGAM1 R116K mutant. The data set is classed as biochemical, human. Conditions: compared to the wild-type PGAM1. As to the method: as §1, §2, §3

For data set [3], the system named is T3, PGAM1 R191K mutant.
T3 construct: His; made in house; host or cells: E. coli BL21
In words: Inhibition of PGAM1 R191K mutant. The format is biochemical, human. Conditions: compared to the wild-type PGAM1. The procedure:
as §1, §2, §3

Data set [4] relates to NCI-H1299 cells. In words: Intracellular 2-PG measurement. The format is cell-based, human. Conditions: NCI-H1299, 24 h, free compound. As to the method:
A 2-Phosphoglycerate Colorimetric/Fluorometric Assay kit (BioVision) was used to measure cellular 2-PG level. Cells were collected after exposure to compounds for 24 h, washed with PBS, and lysed with ice-cold 2-PG assay buffer. […] The samples were measured by using EnVision® at Ex 535 Em 587 nm.

Data set [5] has as its system human xenograft tumors. Also on record: method as in Hitosugi et al., 2012. Conditions: mice models carrying human xenograft tumors; ref Hitosugi et al., 2012; cited from earlier work.
Data set [6] has as its target T4, PGAM1 (Homo sapiens, UniProt P18669).
T4 construct: His; made in house; host or cells: E. coli BL21
In words: PGAM1 coupled enzymatic assay (PKM1/enolase, Kinase-Glo). The format is biochemical. The settings on record: recombinant PGAM1, coupled enzyme assay; read-out: IC50, inhibition of PGAM1.
From the text: To identify new PGAM1 inhibitors, we utilized a coupled PGAM1 and pyruvate kinase isozymes M1 (PKM1)/enolase biochemical assay followed by a counter screen to exclude compounds with activity toward PKM1 or enolase. […] Using these biochemical assays, we screened a chemical library composed of 800 purified compounds derived from natural products.

Data set [7] concerns T5, phosphoglycerate dehydrogenase (PHGDH).
T5 construct: His; made in house; host or cells: E. coli BL21
The data set is described as follows: PHGDH enzymatic assay. The data set is classed as biochemical. Conditions: at a concentration up to 100 μM. The procedure:
Assays were conducted in 10 μL buffer (200 mM Tris-HCl pH8.1, 400 mM KCl, 2 mM GSH, and 10 mM EDTA) containing recombinant PHGDH, 0.6 mM NAD, 1 mM 3-PG. The NADH product can be measured by diaphorase/rezasurin system.

The test system of data set [8] is T6, mutant isocitrate dehydrogenase 1 (IDH1 R132H).
T6 construct: purchased Cayman Chemical
The data set is described as follows: IDH enzymatic assay. The format is biochemical. The settings on record: at a concentration up to 100 μM. The procedure:
Assays were conducted in 10 μL buffer [150 mM NaCl, 20 mM Tris pH7.5, 10 mM MgCl2, 0.05% (w/v) bovine serum albumin] containing 2.5 μL of test compound, 5 μL enzyme solution (10 ng/μL mutant IDH, Cayman Chemical) and 2.5 μL substrate solution (1 mM α-KG, 4 μM NADPH) added into a 384-well plate followed by incubation at room temperature for 60 min. After incubation, NADPH remaining amount was measured by adding 5 μL buffer containing 5 μM resazurin and 0.01 unit diaphorase and incubated at room temperature for 10 min. The plate was read using EnVision (Perkin Elmer) at Ex 540 Em 590 nm.

Data set [9] has as its target T4, PGAM1. In words: Surface plasmon resonance binding to PGAM1. The settings on record: SPR, 25°C, 1:1 Langmuir binding model; read-out: dissociation constant (Kd-value). As to the method: Surface plasmon resonance (SPR) assay was carried out with a ProteOn XPR36 instrument (Bio-Rad). PGAM1 was coupled to the surface of a GLH sensor chip according to the manufacturer’s instructions. […] Resonance units (RU) changes represent the binding condition. The dissociation constant (Kd) was calculated using the ProteOn Manager 3.1 software program by fitting to a 1:1 Langmuir binding model.

Data set [10] has as its target T4, PGAM1. The data set is described as follows: Substrate 3-PG competition, Lineweaver-Burk plot analysis. The format is biochemical.
For data set [11], the system named is Caco-2 monolayer. In words: Caco-2 monolayer permeability. The data set is classed as in vitro ADME. Conditions: result in words. As to the method: The solubility of compounds was measured by Nephelometry using the NEPHELOstar plus apparatus (BMG Lab Technologies). Caco-2 monolayer was cultivated on permeable support. In details, after 21-day culture, the integrity of the cell monolayer of every well was verified by measuring the transepithelial electrical resistance (TEER). The diluted solution was added to corresponding well and the plate was incubated at 37°C for 1.5 h. 100 μL samples were collected from both apical and basolateral sides at the initial and end time points and the sample concentrations were measured for the evaluation of mass balance.

In data set [12] the test system is NCI-H1299 cells. In words: Cell proliferation assay, NCI-H1299. The format is cell-based, human. The procedure:
Cells were seeded into a 6-well plate. […] The cells were harvested after incubation for 72 h and the proliferation inhibition rate was calculated by cell number counting (Beckman).

Data set [13] relates to hexokinase 2 (HK2). Also on record: method as in Gao et al., 2015. The settings on record: human tongue carcinoma; ref Gao et al., 2015; cited from earlier work.

T4 sequence (P18669 whole entry): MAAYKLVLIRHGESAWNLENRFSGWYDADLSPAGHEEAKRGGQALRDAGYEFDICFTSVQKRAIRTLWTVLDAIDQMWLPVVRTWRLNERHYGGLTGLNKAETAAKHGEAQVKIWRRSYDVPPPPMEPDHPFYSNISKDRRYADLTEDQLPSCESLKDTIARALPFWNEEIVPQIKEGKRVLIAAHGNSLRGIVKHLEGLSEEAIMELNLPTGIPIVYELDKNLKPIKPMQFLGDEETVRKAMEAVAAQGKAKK

Take `O=C1c2ccccc2C(=O)c2c1cc(S(=O)(=O)Nc1ccc(C(F)(F)F)cc1)c(O)c2O` [PGMI-004A, reference compound]: the “inhibitory activity toward R10K mutant” value in [1] is on record as “only slightly affect the activity”. In addition, in data set [2], the “inhibitory activity toward R116K mutant” value is given as “only slightly affect the activity”. In addition, the “inhibitory activity toward R191K mutant” value in [3] was “only slightly affect the activity”. Besides, in [4], the “concentration giving apparent inhibition of intracellular 2-PG level” value was determined as 20 µM. Moreover, the “anticancer properties in xenograft mice” value in data set [5] is “exhibited evident anticancer properties”.
For the compound (-)-Epigallocatechin-3-gallate [EGCG], the concentration for half-maximal inhibition (IC50) in data set [6] is 490 ± 170 nM. The “inhibition of PHGDH” value in data set [7] is given as “did not inhibit”. The “inhibition of mutant IDH1” value in data set [8] is listed as “did not inhibit”. Besides, the Kd in data set [9] is 780 nM. Also, in [1], the “inhibitory activity toward R10K mutant” value was “lost its inhibitory activity”. Further, in [2], the “inhibitory activity toward R116K mutant” value is on record as “lost its inhibitory activity”. Also, in data set [3], the “inhibitory activity toward R191K mutant” value is listed as “lost its inhibitory activity”. Also, the “pattern of inhibition with substrate 3-PG” value in [10] is on record as “non-competitive”. Further, the “concentration giving apparent inhibition of intracellular 2-PG level” value in [4] stood at 80 µM. In addition, the membrane permeability result in data set [11] is given as “extremely low membrane permeability”. Also, the cell growth entry in data set [12] (NCI-H1299, 72 h, cell counting) was “dose-dependently inhibited cell growth”. Moreover, in data set [12] (PGAM1 stable knockdown NCI-H1299 (shPGAM1) vs scramble, 72 h), the “effect of stable knockdown of PGAM1 on growth inhibition” value is given as “partially rescued”. The “expression of hexokinase 2 (HK2)” value in [13] was “inhibits the expression”.
